1 compound from publication PMC6934184, “Selective DNA-PKcs inhibition extends the therapeutic index of localized radiotherapy and chemotherapy” (The Journal of Clinical Investigation, 2019) can be followed below.

In this assay the target is T1, FLT3 D835Y (Homo sapiens, UniProt P36888, D835Y).
T1 construct: purchased Thermo Fisher Scientific (Life Technologies) SelectScreen
Kind of assay: SelectScreen Z'LYTE. It counts as biochemical. The method in brief: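 Compound tested in SelectScreen activity assays, Z'LYTE for CSF1R, CDK1/cyclin B and MAP2K6 and Adapta for CAMK1. ATP for CAMK1 was listed as 10, and Km app was used for CSF1R. Results are expressed in percent.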

Each structure is given as a SMILES string.

Regarding `CN(C(=O)CN1CCOCC1)c1ccc2sc3c(-c4cccc5c(=O)cc(N6CC7CCC(C6)O7)oc45)cccc3c2c1` [NU5455], the inhibition at 1 µM was -3.9%.
